Assay results reported in ChEMBL document CHEMBL4020751, “Synthesis and in vitro biological evaluation of novel coumarin derivatives containing isoxazole moieties on melanin synthesis in B16 cells and inhibition on bacteria” (Bioorg Med Chem Lett, 2017).

Key:
Candida albicans = assay: Antifungal activity against Candida albicans ATCC 10231 assessed as diameter of inhibition zone after 24 hrs by agar well diffusion method; format: functional
Escherichia coli = assay: Antibacterial activity against Escherichia coli ATCC 11229 assessed as diameter of inhibition zone after 24 hrs by agar well diffusion method; format: functional
Staphylococcus aureus = assay: Antibacterial activity against Staphylococcus aureus ATCC 6538 assessed as diameter of inhibition zone after 24 hrs by agar well diffusion method; format: functional
B16 [1] = assay: Induction of melanin synthesis in mouse B16 cells assessed as increase in melanin content at 50 uM after 48 hrs measured by spectrophotometric method relative to control; format: functional
B16 [2] = assay: Cytotoxicity against mouse B16 cells at 50 uM after 24 hrs by CCK8 assay; format: cell-based; details: b16, 24 h
B16 [3] = assay: Potency index, ratio of compound activity to 8-MOP activity for induction of melanin synthesis in mouse B16 cells; format: functional

Row | SMILES | diameter of the inhibition zone (DIZ) (Candida albicans) | diameter of the inhibition zone (DIZ) (Escherichia coli) | diameter of the inhibition zone (DIZ) (Staphylococcus aureus) | Activity (B16 [1]) | Activity (B16 [2]) | Ratio (B16 [3])
1 | C[C@@H]1[C@H](O)[C@@H](C)/C=C/C=C/C=C/C=C/C=C/C=C/C=C/[C@H](O[C@@H]2O[C@H](C)[C@@H](O)[C@H](N)[C@@H]2O)C[C@@H]2O[C@](O)(C[C@@H](O)C[C@@H](O)[C@H](O)CC[C@@H](O)C[C@@H](O)CC(=O)O[C@H]1C)C[C@H](O)[C@H]2C(=O)O [AMPHOTERICIN B] | 11 mm | <=7 mm | <=7 mm |  |  | 
2 | Cc1cc(=O)oc2cc(OCc3cc(-c4ccc(F)c(F)c4)no3)ccc12 | 10 mm | <=7 mm | <=7 mm | 156.64% |  | 
3 | Cc1cc(=O)oc2cc(OCc3cc(-c4cc(I)ccc4F)no3)ccc12 | <=7 mm | <=7 mm | <=7 mm | 169.71% |  | 
4 | Cc1cc(=O)oc2cc(O)ccc12 [HYMECROMONE] | 7 mm | <=7 mm | <=7 mm | 112.2% |  | 
5 | Cc1cc(=O)oc2cc(OCc3cc(-c4ccc5c(c4)OCCO5)no3)ccc12 | <=7 mm | <=7 mm | <=7 mm | 178.33% |  | 
6 | Cc1cc(=O)oc2cc(OCc3cc(-c4cccc(Cl)c4)no3)ccc12 | 7 mm | <=7 mm | <=7 mm | 242.18% | Toxic | 1.6
7 | Cc1cc(=O)oc2cc(OCc3cc(-c4cc(F)cc(F)c4)no3)ccc12 | 10 mm | <=7 mm | <=7 mm | 176.55% |  | 
8 | COc1ccccc1-c1cc(COc2ccc3c(C)cc(=O)oc3c2)on1 | <=7 mm | <=7 mm | <=7 mm | 145.05% |  | 
9 | Cc1cc(=O)oc2cc(OCc3cc(-c4cccc(F)c4)no3)ccc12 | 7 mm | <=7 mm | <=7 mm | 121.15% |  | 
10 | Cc1cc(=O)oc2cc(OCc3cc(-c4ccc(Cl)c(F)c4)no3)ccc12 | 7 mm | <=7 mm | <=7 mm | 182.27% |  | 
11 | Cc1cc(=O)oc2cc(OCc3cc(-c4ccc(Cl)cc4)no3)ccc12 | <=7 mm | <=7 mm | <=7 mm | 191.96% |  | 
12 | Cc1cc(=O)oc2cc(OCc3cc(-c4cc(Cl)cc(Cl)c4)no3)ccc12 | 10 mm | <=7 mm | <=7 mm | 389.95% | Toxic | 2.6
13 | Cc1cc(=O)oc2cc(OCc3cc(-c4ccc(Cl)c(Cl)c4)no3)ccc12 | 10 mm | <=7 mm | <=7 mm | 204.12% | Toxic | 
14 | CC1(C)S[C@@H]2[C@H](NC(=O)[C@H](N)c3ccccc3)C(=O)N2[C@H]1C(=O)O [AMPICILLIN] | <=7 mm |  | 19 mm |  |  | 
15 | COc1ccc(-c2cc(COc3ccc4c(C)cc(=O)oc4c3)on2)cc1 | <=7 mm | <=7 mm | <=7 mm | 129.45% |  | 
16 | COc1c2occc2cc2ccc(=O)oc12 [METHOXSALEN] | <=7 mm | <=7 mm | <=7 mm | 149.39% |  | 
17 | Cc1cc(=O)oc2cc(OCc3cc(-c4cccc(OC(F)(F)F)c4)no3)ccc12 | <=7 mm | <=7 mm | <=7 mm | 203.27% | Toxic | 
18 | Cc1cc(=O)oc2cc(OCc3cc(-c4ccccc4)no3)ccc12 | <=7 mm | <=7 mm | <=7 mm | 153.35% |  | 
19 | Cc1cc(=O)oc2cc(OCc3cc(-c4ccc(F)cc4)no3)ccc12 | <=7 mm | <=7 mm | <=7 mm | 115.44% |  | 
